Earlier results in PMC13061384, “Rapid behavioral screening in the planarian Dugesia japonica is a biologically relevant system to study neurotoxicity of organophosphorus pesticides mixtures” (Frontiers in Toxicology, 2026).

Settings: ref PubChem

Which logP does the source give for `CCOP(=S)(OCC)Oc1ccc([N+](=O)[O-])cc1` [PT, Parathion] here?
The logP was 3.8.
